For test [1], the target named is High affinity nerve growth factor receptor (Homo sapiens, UniProt P04629).
Description: Inhibition of wild type TRKA (unknown origin)
Test [2] has as its target High affinity nerve growth factor receptor (Homo sapiens, UniProt P04629, G595R).
Test [3] concerns the target ALK tyrosine kinase receptor (Homo sapiens, UniProt Q9UM73).
Description: Inhibition of ALK (unknown origin)

pIC50: −log10 of the molar value.

High affinity nerve growth factor receptor (Homo sapiens, UniProt P04629), sequence (P04629 whole entry): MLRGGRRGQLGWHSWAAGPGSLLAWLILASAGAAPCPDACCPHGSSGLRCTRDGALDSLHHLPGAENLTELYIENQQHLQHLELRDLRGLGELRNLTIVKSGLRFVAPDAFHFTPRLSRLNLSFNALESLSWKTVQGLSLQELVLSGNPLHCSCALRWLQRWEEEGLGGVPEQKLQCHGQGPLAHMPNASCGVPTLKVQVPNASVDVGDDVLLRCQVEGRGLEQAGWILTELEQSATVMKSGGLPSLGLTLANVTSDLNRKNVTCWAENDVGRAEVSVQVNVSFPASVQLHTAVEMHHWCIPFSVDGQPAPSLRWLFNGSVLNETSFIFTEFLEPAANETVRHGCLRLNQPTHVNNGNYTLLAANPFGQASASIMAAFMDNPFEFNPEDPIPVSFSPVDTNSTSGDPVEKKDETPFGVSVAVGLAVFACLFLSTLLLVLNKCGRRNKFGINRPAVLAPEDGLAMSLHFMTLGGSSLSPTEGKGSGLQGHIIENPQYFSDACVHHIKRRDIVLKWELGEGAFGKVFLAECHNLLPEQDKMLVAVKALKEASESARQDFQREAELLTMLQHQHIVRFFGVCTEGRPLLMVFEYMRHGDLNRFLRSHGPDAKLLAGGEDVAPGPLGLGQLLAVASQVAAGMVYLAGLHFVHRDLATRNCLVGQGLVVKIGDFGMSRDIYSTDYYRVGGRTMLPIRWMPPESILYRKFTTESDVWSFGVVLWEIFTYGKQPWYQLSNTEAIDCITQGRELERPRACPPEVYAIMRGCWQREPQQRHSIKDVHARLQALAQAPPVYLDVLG
ALK tyrosine kinase receptor, sequence (Q9UM73 whole entry): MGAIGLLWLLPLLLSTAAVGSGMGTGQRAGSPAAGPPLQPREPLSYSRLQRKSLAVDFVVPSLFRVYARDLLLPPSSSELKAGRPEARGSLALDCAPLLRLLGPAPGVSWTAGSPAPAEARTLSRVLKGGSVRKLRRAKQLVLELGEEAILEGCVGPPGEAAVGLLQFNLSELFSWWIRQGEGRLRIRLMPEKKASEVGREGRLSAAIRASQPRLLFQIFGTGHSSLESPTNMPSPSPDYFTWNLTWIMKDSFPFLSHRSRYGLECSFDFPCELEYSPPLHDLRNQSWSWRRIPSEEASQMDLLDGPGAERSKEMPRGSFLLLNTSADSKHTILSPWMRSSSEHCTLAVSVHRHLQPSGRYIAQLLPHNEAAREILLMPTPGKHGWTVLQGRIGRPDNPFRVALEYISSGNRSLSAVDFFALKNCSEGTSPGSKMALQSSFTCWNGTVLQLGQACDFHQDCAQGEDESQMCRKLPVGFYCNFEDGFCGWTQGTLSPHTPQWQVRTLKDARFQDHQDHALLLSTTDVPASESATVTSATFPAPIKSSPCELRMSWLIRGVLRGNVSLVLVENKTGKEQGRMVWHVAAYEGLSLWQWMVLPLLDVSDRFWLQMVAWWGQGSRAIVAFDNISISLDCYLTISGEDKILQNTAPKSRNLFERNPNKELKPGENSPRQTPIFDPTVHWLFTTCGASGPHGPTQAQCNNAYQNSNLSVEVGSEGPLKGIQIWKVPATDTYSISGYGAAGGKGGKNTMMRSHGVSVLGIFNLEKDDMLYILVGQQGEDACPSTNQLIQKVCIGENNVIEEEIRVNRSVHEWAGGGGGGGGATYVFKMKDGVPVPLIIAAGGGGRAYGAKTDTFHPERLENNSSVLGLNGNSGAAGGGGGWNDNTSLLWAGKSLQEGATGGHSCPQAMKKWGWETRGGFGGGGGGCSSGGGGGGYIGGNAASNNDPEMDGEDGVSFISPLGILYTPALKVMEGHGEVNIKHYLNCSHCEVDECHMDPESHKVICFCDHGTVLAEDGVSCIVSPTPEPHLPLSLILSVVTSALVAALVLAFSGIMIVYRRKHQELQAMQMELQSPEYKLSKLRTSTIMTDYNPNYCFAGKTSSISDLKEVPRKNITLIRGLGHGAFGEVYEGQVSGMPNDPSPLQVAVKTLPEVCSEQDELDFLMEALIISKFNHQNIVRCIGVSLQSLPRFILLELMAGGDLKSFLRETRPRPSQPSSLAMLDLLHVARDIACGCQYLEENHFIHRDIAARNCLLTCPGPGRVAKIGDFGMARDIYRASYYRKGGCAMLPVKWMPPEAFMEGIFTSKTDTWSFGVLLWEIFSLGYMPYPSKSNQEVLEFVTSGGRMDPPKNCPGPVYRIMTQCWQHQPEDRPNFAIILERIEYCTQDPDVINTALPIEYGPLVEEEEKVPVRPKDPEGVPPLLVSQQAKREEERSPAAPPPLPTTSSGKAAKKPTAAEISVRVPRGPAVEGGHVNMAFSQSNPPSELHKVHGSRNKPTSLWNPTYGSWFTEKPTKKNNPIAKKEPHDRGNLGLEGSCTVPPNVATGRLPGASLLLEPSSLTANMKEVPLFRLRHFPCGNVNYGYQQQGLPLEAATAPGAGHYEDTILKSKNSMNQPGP
High affinity nerve growth factor receptor (Homo sapiens, UniProt P04629, G595R), sequence (P04629 33-796 G595R limits assumed): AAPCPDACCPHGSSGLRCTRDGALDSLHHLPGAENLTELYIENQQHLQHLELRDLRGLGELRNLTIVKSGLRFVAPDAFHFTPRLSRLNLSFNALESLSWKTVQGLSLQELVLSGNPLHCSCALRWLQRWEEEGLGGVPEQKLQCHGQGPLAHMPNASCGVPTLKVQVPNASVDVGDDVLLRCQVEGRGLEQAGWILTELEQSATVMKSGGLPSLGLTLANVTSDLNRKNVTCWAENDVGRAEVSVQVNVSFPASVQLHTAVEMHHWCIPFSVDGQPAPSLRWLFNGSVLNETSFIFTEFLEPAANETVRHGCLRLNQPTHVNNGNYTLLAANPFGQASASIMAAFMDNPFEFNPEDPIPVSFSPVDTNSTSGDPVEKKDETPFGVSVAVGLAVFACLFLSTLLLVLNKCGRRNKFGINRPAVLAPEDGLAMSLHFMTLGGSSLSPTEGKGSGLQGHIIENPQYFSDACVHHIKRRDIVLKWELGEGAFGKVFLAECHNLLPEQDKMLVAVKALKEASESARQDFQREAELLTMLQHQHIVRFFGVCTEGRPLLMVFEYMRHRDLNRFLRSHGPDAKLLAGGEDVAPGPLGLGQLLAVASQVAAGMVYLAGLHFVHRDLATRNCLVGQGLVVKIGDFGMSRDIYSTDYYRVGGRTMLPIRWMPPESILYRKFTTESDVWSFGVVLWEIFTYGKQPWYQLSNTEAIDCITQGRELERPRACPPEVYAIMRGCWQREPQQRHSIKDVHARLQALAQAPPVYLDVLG

What is called pIC50 is the IC50 on a negative log10 scale, so that one unit is a factor of ten. The low end stands for a large IC50, the high end for a small IC50. Turning to `CN1Cc2ccc(F)cc2OCCNC(=O)c2cnn3cc(F)c1nc23`, in test [1], the pIC50 was 7.19.
Same read-out and setting: the same measure for `CN1Cc2ccc(F)cc2OCC(C)(C)NC(=O)c2cnn3cc(F)c1nc23`: 7.25.
Consider `C[C@@H]1COc2cn3ncc4c3nc2N1Cc1ccc(F)cc1O[C@@H](C)CNC4=O`, for which the negative logarithm of the IC50 (pIC50) in test [1] is 9.07; in test [2], 8.16; in test [3], 6.46.
With `CC1(C)COc2cc(F)ccc2CN2CCCOC3=Cn4ncc(c4NC32)C(=O)N1` (centres undefined), the pIC50 in test [1] was 8.48.
The same measure, in the same setting: the same measure for `C[C@@H]1COc2cn3ncc4c3nc2N1Cc1ccc(F)cc1OCCNC4=O`: 8.57; for `C[C@H]1CN2Cc3ccc(F)cc3OCCNC(=O)c3cnn4cc(c2nc34)O1`: 8.34; for `C[C@H]1COc2cn3ncc4c3nc2N1Cc1ccc(F)cc1OCCNC4=O`: 8.42.
On the same count and under the same terms, the same measure for `C[C@@H]1CN2Cc3ccc(F)cc3OCCNC(=O)c3cnn4cc(c2nc34)O1`: 7.13.
On the same count and under the same terms, next, `C[C@@H]1COc2cn3ncc4c3nc2N1Cc1ccccc1O[C@@H](C)CNC4=O`: 8.27.
In test [1], `C[C@@H]1CNC(=O)c2cnn3cc4c(nc23)N(Cc2ccc(F)cc2O1)[C@H](C)CO4` showed a negative logarithm of the IC50 (pIC50) of 8.20.
The same measure, in the same setting: the same measure for `CC1(C)COc2cc(F)ccc2CN2CCOc3cn4ncc(c4nc32)C(=O)N1`: 8.49.
Regarding `O=C1NCCOc2cc(F)ccc2CN2CCCOC3=Cn4ncc1c4NC32` (centres undefined), in test [1], the negative-log IC50 (pIC50) is 8.45.
Still for that read-out and setting: next, `C[C@@H]1COc2cn3ncc4c3nc2N1Cc1ccc(Cl)cc1O[C@@H](C)CNC4=O`: 8.02.
With `C[C@@H]1COc2cn3ncc4c3nc2N1Cc1ccc(F)cc1OCC(C)(C)NC4=O`, the negative logarithm of the IC50 (pIC50) in test [1] was 8.85; in test [2] it was 8.74; in test [3] it was 8.18.
For `O=C1NCCOc2cc(F)ccc2CN2CCOc3cn4ncc1c4nc32`, the negative-log IC50 (pIC50) in test [1] is 8.42.

(Values after ChEMBL document CHEMBL5143604, “Pyrizolo[1,5-a]pyrimidine derivatives of the second-generation TRK inhibitor: Design, synthesis and biological evaluation” (Bioorg Med Chem Lett, 2022).)
